Measurements published in patent US9212180B2 (priority 2013, dated 2015).

Assays:
MV4;11 [1] = test: Apoptosis in human MLL leukemia cell line MV4;11; format: cell-based; settings: FIG. 8A
ML-2 = test: Apoptosis in human MLL leukemia cell line ML-2; format: cell-based; settings: FIG. 8A
MLL leukemia cells = test: Cell cycle arrest in MLL leukemia cells; format: cell-based; settings: different MLL leukemia cells; FIG. 9
[2] = system: MLL-AF9 transformed murine bone marrow cells; test: Colony forming assay in MLL-AF9 transformed murine bone marrow cells; format: cell-based; settings: FIG. 10
[3] = system: MLL-ENL transformed murine bone marrow cells; test: Proliferation of MLL-ENL transformed murine bone marrow cells; format: cell-based; settings: FIG. 2
[4] = system: MLL-AF9 transformed murine bone marrow cells; test: Proliferation of MLL-AF9 transformed murine bone marrow cells; format: cell-based; settings: FIG. 2
Kasumi-1 = test: Apoptosis in control cell line Kasumi-1 without MLL translocation; format: cell-based; settings: Kasumi-1 control cell line without MLL translocation; FIG. 8B
MI-2 = test: Differentiation of human MLL leukemia cell line MI-2; format: cell-based; settings: FIG. 7
[5] = system: MLL-AF9 transformed murine bone marrow cells; test: Differentiation of MLL-AF9 transformed murine bone marrow cells; format: cell-based
MV4;11 [6] = test: Differentiation of human MLL leukemia cell line MV4;11; format: cell-based; settings: FIG. 6, FIG. 7
Hoxa9 and Meis1 = test: Expression level of Hoxa9 and Meis1 in MLL-AF9 transformed bone marrow cells; format: cell-based, murine; settings: FIG. 1B
MonoMac-6 = test: Differentiation of human MLL leukemia cell line MonoMac-6; format: cell-based; settings: FIG. 7
KOPN8 = test: Differentiation of human MLL leukemia cell line KOPN8; format: cell-based; settings: FIG. 7

| SMILES | apoptosis (MV4;11 [1]) | apoptosis (ML-2) | cell cycle arrest (MLL leukemia cells) | transforming properties of MLL-AF9 fusion protein (colony number, morphology of colonies) [2] | inhibition of proliferation [3] | inhibition of proliferation [4] | apoptosis (Kasumi-1) | differentiation (change in the CD11b expression and change in morphology of cells) (MI-2) | differentiation as assessed by increased expression of the CD11b differentiation marker ([5]; FIG. 4) | differentiation as assessed by significant change in morphology ([5]; FIG. 5) | differentiation (CD11b expression and morphology change) (MV4;11 [6]) | expression level of Hoxa9 and Meis1 (Hoxa9 and Meis1) | differentiation (change in the CD11b expression and change in morphology of cells) (MonoMac-6) | differentiation (change in the CD11b expression and change in morphology of cells) (KOPN8) |
| --- | --- | --- | --- | --- | --- | --- | --- | --- | --- | --- | --- | --- | --- | --- |
| N#Cc1ccc(OCCCN2CCC(C(O)c3ccccc3)CC2)cc1 (stereo not shown) [B76 (NC)] | but not the control compound (NC) induce apoptosis | but not the control compound (NC) induce apoptosis | No such effect | but not NC reduce transforming properties | No such effect | No such effect | No effect on apoptosis |  |  |  |  |  |  |  |
| N#Cc1ccc(OCCCN2CCC([C@](O)(c3ccccc3)C3CCCC3)CC2)cc1 [Compound B19] | induce apoptosis | induce apoptosis | induce cell cycle arrest | reduce transforming properties |  |  | No effect on apoptosis | induce differentiation | induces differentiation | induces differentiation | induce differentiation | strongly downregulates | induce differentiation | induce differentiation |
